Here are results for four molecules from patent US10500286B2, “CCK2R-drug conjugates” (priority 2015, dated 2019).

pIC50: −log10 of the molar value. Like-named read-outs stand apart in the source and are kept apart here.

For data set [1], the system named is HEK-CCK2R cells. Put plainly: In vitro study of conjugates versus competitor, [3H]thymidine incorporation. It counts as cell-based. As to the method:
(§1) CCK2R-positive HEK-CCK2R cells were seeded in 12-well Falcon plates and allowed to form nearly confluent monolayers overnight in RPMI/HIFCS. Each well then received increasing concentrations of CCK2R targeted conjugates (EC1812 or EC1868)+/−10 μM of CCK2R binding competitor (Re-EC1786 or Re-EC1825). Cells were pulsed for 2 h at 37° C., rinsed with medium, and then chased in fresh medium up to 72 h. Spent medium was aspirated and replaced with medium containing [^3H]thymidine. Following a 2 h incubation, cells were washed with PBS and then treated with 5% trichloroacetic acid. The trichloroacetic acid was aspirated and cells were solubilized in 0.25 N sodium hydroxide. Each solubilized sample were transferred to scintillation vials containing Ecolume scintillation cocktail and counted in a liquid scintillation counter. Final results were expressed as the percentage of [^3H]thymidine incorporation relative to untreated controls and IC50 values calculated using GraphPad Prism software.

Data set [2] can be described thus: Body weight of mice bearing subcutaneous HEK-CCK2R tumors during treatment. The note with it: 2 μmol/kg, TIW×2 weeks. It counts as in vivo. The procedure:
(▪) control; (▴) EC1873; (●) EC1868; (∘) EC1947.
(§2) Female Balb/c nu/nu mice were fed ad libitum with 2918 irradiated Teklad Global 18% Rodent Diet for the duration of the experiment. HEK-CCK2R tumor cells were inoculated subcutaneously at the right flank of each mouse. Mice were dosed through the lateral tail vein under sterile conditions in a volume of 200 μL of phosphate-buffered saline (PBS).

For data set [3], the system named is HEK-CCK2R cells. It counts as cell-based. As to conditions: 2 h pulse at 37 C, chase up to 72 h, [3H]thymidine incorporation relative to untreated controls. The procedure: as §1, with “(n=4).” for “(EC1812 or EC1868)+/−10 μM of CCK2R binding competitor (Re-EC1786 or Re-EC1825).”
For orientation: Uptake of a labelled nucleoside into DNA is a usual measure of proliferation.

Data set [4] concerns HEK-CCK2R tumor cells. Put plainly: Antitumor activity in HEK-CCK2R tumor model. The note with it: 2 μmol/kg. It is filed as in vivo, mice. As to the method: as §2
Growth of each s.c. tumor was followed by measuring the tumor two times per week. Tumors were measured in two perpendicular directions using Vernier calipers, and their volumes were calculated as 0.5×L×W^2, where L=measurement of longest axis in mm and W=measurement of axis perpendicular to L in mm.
Treatment with 2 μmol/kg of EC1947 (Sulfated CCK8-Tubulysin B SMDC), three times a week for two weeks produced maximal anti-tumor activity with 80% cures and 20% CR's. In comparison, EC1868 (CCK8-PEG3-Tubulysin B SMDC) and EC1873 (CCK8-PEG12-Tubulysin B SMDC) at the same dose and schedule produced 100% CR's and 80% CR's/20% PR's, respectively.

Setting [5] is: three times a week for two weeks.

The pIC50 is the IC50 on a negative log10 scale, so that one unit is a factor of ten.

With `CCCC(=O)OCN(C(=O)[C@@H](NC(=O)[C@H]1CCCCN1C)C(C)CC)[C@H](C[C@@H](OC(C)=O)c1nc(C(=O)N[C@@H](Cc2ccc(O)cc2)C[C@H](C)C(=O)NNC(=O)OCCSSC[C@H](NC(=O)[C@H](CCC(=O)NC[C@@H](O)[C@H](O)[C@@H](O)[C@@H](O)CO)NC(=O)[C@H](CCC(=O)O)NC(=O)[C@H](CCC(=O)NC[C@@H](O)[C@H](O)[C@@H](O)[C@@H](O)CO)NC(=O)[C@H](CCC(=O)O)NC(=O)CCCCCCCNC(=O)c2cccc(NC(=O)N[C@@H]3CN(C4CCCCC4)c4ccccc4N(CC(=O)C(C)(C)C)C3=O)c2)C(=O)O)cs1)C(C)C` (some centres unmarked) [EC1812], the “cytotoxic activity on HEK-CCK2R, in words” value in data set [1] is “relatively inactive”. Moreover, the pIC50 in data set [1] (+ 10 μM competitor Re-EC1786, read-out: IC50 in presence of Re-EC1786) is 6.58; in data set [1] (conjugate alone, read-out: IC50), 6.65. Further, in data set [1] (excess Re-EC1786), the “competition of activity by excess Re-EC1786, in words” value is given as “not competeable”.

For the molecule `CCCC(=O)OCN(C(=O)[C@@H](NC(=O)[C@H]1CCCCN1C)C(C)CC)[C@H](C[C@@H](OC(C)=O)c1nc(C(=O)N[C@@H](Cc2ccc(O)cc2)C[C@H](C)C(=O)NNC(=O)OCCSSC[C@H](NC(=O)[C@H](CC(=O)O)NC(=O)[C@@H](N)CNC(C)=O)C(=O)NCCOCCOCCOCCC(=O)N[C@@H](CC(=O)O)C(=O)N[C@@H](Cc2ccc(O)cc2)C(=O)N[C@@H](CCSC)C(=O)NCC(=O)N[C@@H](Cc2c[nH]c3ccccc23)C(=O)N[C@@H](CCSC)C(=O)N[C@@H](CC(=O)O)C(=O)N[C@@H](Cc2ccccc2)C(N)=O)cs1)C(C)C` (some centres unmarked) [EC1868], the weight loss result in data set [2] is “do not induce weight loss”. The molecule also gave a pIC50 in data set [3] of 9.70. The “CR, number of animals, second figure of {PR, CR, cure}” value in data set [4] (TIW×2 weeks, n=5) stood at 5. In addition, the “CR's” value in data set [4] (setting [5]) came out at 100%. For the same molecule, in data set [1], the “cytotoxic activity on HEK-CCK2R, in words” value is “potent, competeable cytotoxic activity”.

Turning to `CCCC(=O)OCN(C(=O)[C@@H](NC(=O)[C@H]1CCCCN1C)C(C)CC)[C@H](C[C@@H](OC(C)=O)c1nc(C(=O)N[C@@H](Cc2ccc(O)cc2)C[C@H](C)C(=O)NNC(=O)OCCSSC[C@H](NC(=O)[C@H](CC(=O)O)NC(=O)[C@@H](N)CNC(C)=O)C(=O)NCCOCCOCCOCCOCCOCCOCCOCCOCCOCCOCCOCCOCCC(=O)N[C@@H](CC(=O)O)C(=O)N[C@@H](Cc2ccc(O)cc2)C(=O)N[C@@H](CCSC)C(=O)NCC(=O)N[C@@H](Cc2c[nH]c3ccccc23)C(=O)N[C@@H](CCSC)C(=O)N[C@@H](CC(=O)O)C(=O)N[C@@H](Cc2ccccc2)C(N)=O)cs1)C(C)C` (some centres unmarked) [EC1873], the weight loss result in data set [2] was “do not induce weight loss”. Further, the pIC50 in data set [3] was 8.55. Moreover, in data set [4] (setting [5]), the “CR's” value was 80% and the “PR's” value turned out to be 20%.

Turning to `CCCC(=O)OCN(C(=O)[C@@H](NC(=O)[C@H]1CCCCN1C)C(C)CC)[C@H](C[C@@H](OC(C)=O)c1nc(C(=O)N[C@@H](Cc2ccc(O)cc2)C[C@H](C)C(=O)NNC(=O)OCSSC[C@H](NC(=O)[C@H](CC(=O)O)NC(=O)[C@@H](N)CNC(C)=O)C(=O)NCCOCCOCCC(=O)N[C@@H](CC(=O)O)C(=O)N[C@@H](Cc2ccc(OS(=O)(=O)O)cc2)C(=O)N[C@@H](CCSC)C(=O)NCC(=O)N[C@@H](Cc2c[nH]c3ccccc23)C(=O)N[C@@H](CCSC)C(=O)N[C@@H](CC(=O)O)C(=O)N[C@@H](Cc2ccccc2)C(N)=O)cs1)C(C)C` (some centres unmarked) [EC1947], the weight loss entry in data set [2] was “do not induce weight loss”. Besides, in data set [3], the pIC50 is 9.05. In data set [4] (setting [5]), the “CR's” value is 20% and the cures was 80%.
